The target of this assay is T1, human Chemokine like receptor 1 (Homo sapiens, UniProt Q99788).
T1 construct: host or cells: U2OS (Tango CMKLR1-bla U2OS)
T1 sequence (Q99788 1-373): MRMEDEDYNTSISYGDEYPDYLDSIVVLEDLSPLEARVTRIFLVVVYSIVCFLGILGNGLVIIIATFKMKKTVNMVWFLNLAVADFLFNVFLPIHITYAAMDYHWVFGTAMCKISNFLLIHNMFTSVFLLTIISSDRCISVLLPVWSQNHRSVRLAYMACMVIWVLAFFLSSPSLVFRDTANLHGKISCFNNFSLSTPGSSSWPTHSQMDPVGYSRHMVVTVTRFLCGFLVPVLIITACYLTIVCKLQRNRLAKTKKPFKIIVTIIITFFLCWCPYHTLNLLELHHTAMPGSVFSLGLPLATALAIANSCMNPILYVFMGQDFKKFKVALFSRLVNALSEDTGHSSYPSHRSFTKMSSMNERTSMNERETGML
Description: Activation of Tango CMKLR1-bla U2OS cells (beta-lactamase FRET reporter). Type of assay: cell-based. Conditions: read-out: EC50. A digest of the protocol:
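Agonist mode in Tango CMKLR1-bla U2OS cells, 10000 cells/well seeded overnight, then 10-point 3-fold compound dilutions from 10 mM DMSO stock applied for 4 h at 37 °C, 5% CO2. Beta-lactamase reporter read with CCF4-AM FRET substrate; peptide (D-Tyr)-Phe-Leu-Pro-(D-Ser)-Gln-Phe-(D-Ala)-Tic-Ser served as positive control.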

SMILES strings stand for the structures. Where two headings read alike, the source gives them in different places. Square brackets hold non-standard residues; d marks the D form. Peptide text beside a SMILES is read from it. * marks the point of attachment. Hydrocinnamoyl = O=C(CCc1ccccc1)*; Tic = O=C(O)[C@@H]1Cc2ccccc2CN1; NMeL = CN[C@@H](CC(C)C)C(=O)O

On to `CC(C)C[C@H](NC(=O)[C@H](Cc1ccccc1)NC(=O)[C@H](N)Cc1ccc(O)cc1)C(=O)N1CCC[C@H]1C(=O)N[C@H](CO)C(=O)N[C@@H](CCC(N)=O)C(=O)N[C@@H](Cc1ccccc1)C(=O)N[C@H](C)C(=O)N1Cc2ccccc2C[C@H]1C(=O)N[C@@H](CO)C(=O)O` [YW-3, (D-Tyr)-Phe-Leu-Pro-(D-Ser)-Gln-Phe-(D-Ala)-Tic-Ser, reference compound] (H-[dY]FLP[dS]QF[dA][Tic]S-OH), for which the EC50 (commonly the concentration that produces a half-maximal response) (Tango CMKLR1-bla U2OS cells, 4 hours incubation, four-parameter fit of activation rate) was found to be 19 nM. `CC(C)C[C@@H](C(=O)N1CCC[C@H]1C(=O)N[C@H](CO)C(=O)N[C@@H](CCC(N)=O)C(=O)N[C@@H](Cc1ccccc1)C(=O)N[C@H](C)C(=O)N1Cc2ccccc2C[C@H]1C(=O)N[C@@H](CO)C(=O)O)N(C)C(=O)[C@H](Cc1ccccc1)NC(=O)[C@@H](Cc1ccc(O)cc1)NC(=O)CCc1ccccc1` [YW-111, 3-phenylpropanoyl-(D-Tyr)-Phe-(NMe-Leu)-Pro-(D-Ser)-Gln-Phe-(D-Ala)-Tic-Ser-OH] (Hydrocinnamoyl-[dY]F[NMeL]P[dS]QF[dA][Tic]S-OH): the EC50 (determination by the method of Effect Embodiment 1) is 2 nM.

The record behind these values is patent US12129312B2, “Peptide compound, application thereof and composition containing same” (priority 2017, dated 2024).
